Measured values reported in patent publication US11058688B2, “Imidazopiperazine inhibitors of transcription activating proteins” (Board of Regents, The University of Texas System, priority 2018, dated 2021).

What was measured:
[1] = target: GST-CBP(1081-1197) bromodomain (Homo sapiens (Human), UniProt Q92793); assay: CBP AlphaScreen Assay; conditions: binding to biotin-H4(1-21) Ac-K5/8/12/16 peptide
How it was run: (§1)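 IC50 values derived by variable-slope dose-response fit between negative and DMSO control signals. AlphaScreen signal reports bromodomain association with an H4(1-21) peptide acetylated at K5, K8, K12 and K16.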

[2] = target: BRD4(49-170) bromodomain (Homo sapiens (Human), UniProt O60885); assay: BRD4 AlphaScreen Assay; conditions: binding to biotin-H4(1-21) Ac-K5/8/12/16 peptide
How it was run: as §1

Chain of GST-CBP(1081-1197) bromodomain (Q92793 1081-1197): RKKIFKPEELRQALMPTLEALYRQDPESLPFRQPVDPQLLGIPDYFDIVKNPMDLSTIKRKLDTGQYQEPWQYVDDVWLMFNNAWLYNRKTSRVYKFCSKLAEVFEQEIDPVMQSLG

IC50 [1] [nM] | IC50 [2] [nM] | Compound
270 | 21000 | CC(=O)N1CCn2c(C3CC3)nc(N3CCCc4cc(-c5ccnc(N6CCOCC6)c5)ccc43)c2C1 [Example 112, 1-(3-cyclopropyl-1-(6-(2-morpholinopyridin-4-yl)-3,4-dihydroquinolin-1(2H)-yl)-5,6-dihydroimidazo[1,5-a]pyrazin-7(8H)-yl)ethan-1-one]
4490 | > 25000 | CC(=O)N1CCn2c(C3CC3)nc(-c3cnc(N)c(OC(F)(F)F)c3)c2C1 [Example 41, 1-(1-(6-amino-5-(trifluoromethoxy)pyridin-3-yl)-3-cyclopropyl-5,6-dihydroimidazo[1,5-a]pyrazin-7(8H)-yl)ethan-1-one]
3 | 17900 | CNC(=O)N1CCn2c(C3CCC(F)(F)CC3)nc(-c3cccc4nc(-c5cnn(C)c5)c(C#N)cc34)c2C1 [Example 82, 1-(3-cyano-2-(1-methyl-1H-pyrazol-4-yl)quinolin-5-yl)-3-(4,4-difluorocyclohexyl)-N-methyl-5,6-dihydroimidazo[1,5-a]pyrazine-7(8H)-carboxamide]
19 | 24700 | CNC(=O)N1CCn2c(C3CC3)nc(-c3cccc4nc(-c5cn(C)nc5C)c(C(F)(F)F)cc34)c2C1 [Example 101, 3-cyclopropyl-1-(2-(1,3-dimethyl-1H-pyrazol-4-yl)-3-(trifluoromethyl)quinolin-5-yl)-N-methyl-5,6-dihydroimidazo[1,5-a]pyrazine-7(8H)-carboxamide]
38 | 9710 | CNC(=O)N1CCn2c(C3CC3)nc(-c3ccnc4nc(-c5cnn(C)c5)c(C(F)F)cc34)c2C1 [Example 36, 3-Cyclopropyl-1-(6-(difluoromethyl)-7-(1-methyl-1H-pyrazol-4-yl)-1,8-naphthyridin-4-yl)-N-methyl-5,6-dihydroimidazo[1,5-a]pyrazine-7(8H)-carboxamide]
10 | > 25000 | CNC(=O)N1CCn2c(C3CC(F)(F)C3)nc(-c3c(F)ccc4cc(-c5cnc(C)s5)ncc34)c2C1 [Example 92, 3-(3,3-difluorocyclobutyl)-1-(7-fluoro-3-(2-methylthiazol-5-yl)isoquinolin-8-yl)-N-methyl-5,6-dihydroimidazo[1,5-a]pyrazine-7(8H)-carboxamide]
67 | > 10000 | CC(=O)N1CCn2c(C(C)C)nc(-c3ccc4c(c3)c(-c3cnn(C)c3)nn4C)c2C1 [Example 49, 1-(3-isopropyl-1-(1-methyl-3-(1-methyl-1H-pyrazol-4-yl)-1H-indazol-5-yl)-5,6-dihydroimidazo[1,5-a]pyrazin-7(8H)-yl)ethan-1-one]
48 | 22400 | CNC(=O)N1CCn2c(C3CC(F)(F)C3)nc(-c3c(F)ccc4cc(C5CCOCC5)ncc34)c2C1 [Example 91, 3-(3,3-difluorocyclobutyl)-1-(7-fluoro-3-(tetrahydro-2H-pyran-4-yl)isoquinolin-8-yl)-N-methyl-5,6-dihydroimidazo[1,5-a]pyrazine-7(8H)-carboxamide]
12 | 12300 | CNC(=O)N1CCn2c(C3CCOCC3)nc(-c3cccc4cc(-c5cn(C)nc5C)ncc34)c2C1 [Example 70, 1-(3-(1,3-dimethyl-1H-pyrazol-4-yl)isoquinolin-8-yl)-N-methyl-3-(tetrahydro-2H-pyran-4-yl)-5,6-dihydroimidazo[1,5-a]pyrazine-7(8H)-carboxamide]
349 | 13800 | CC(=O)N1CCn2c(C3CC3)nc(N3CCCc4cc(-c5cnn(C6CCOCC6)c5)ccc43)c2C1 [Example 109, 1-(3-cyclopropyl-1-(6-(1-(tetrahydro-2H-pyran-4-yl)-1H-pyrazol-4-yl)-3,4-dihydroquinolin-1(2H)-yl)-5,6-dihydroimidazo[1,5-a]pyrazin-7(8H)-yl)ethan-1-one]
12 | > 10000 | CNC(=O)N1CCn2c(C(C)C)nc(-c3ccc4c(c3)c(-c3cnn(C)c3)nn4C)c2C1 [Example 50, 3-isopropyl-N-methyl-1-(1-methyl-3-(1-methyl-1H-pyrazol-4-yl)-1H-indazol-5-yl)-5,6-dihydroimidazo[1,5-a]pyrazine-7(8H)-carboxamide]
4 | 10200 | CNC(=O)N1CCn2c(C3CCC(F)(F)CC3)nc(-c3c(F)ccc4cc(C5CCOCC5)ncc34)c2C1 [Example 90, 3-(4,4-difluorocyclohexyl)-1-(7-fluoro-3-(tetrahydro-2H-pyran-4-yl)isoquinolin-8-yl)-N-methyl-5,6-dihydroimidazo[1,5-a]pyrazine-7(8H)-carboxamide]
1 | 3850 | CNC(=O)N1CCn2c(C3CC3)nc(-c3cccc4cc(-c5cnc(C)s5)ncc34)c2C1 [Example 23, 3-Cyclopropyl-N-methyl-1-(3-(2-methylthiazol-5-yl)isoquinolin-8-yl)-5,6-dihydroimidazo[1,5-a]pyrazine-7(8H)-carboxamide]
2 | 6480 | CNC(=O)N1CCn2c(C3CC3)nc(-c3cccc4cc(-c5cnn(C)c5)ncc34)c2C1 [Example 124, 3-cyclopropyl-N-methyl-1-(3-(1-methyl-1H-pyrazol-4-yl)isoquinolin-8-yl)-5,6-dihydroimidazo[1,5-a]pyrazine-7(8H)-carboxamide]
40 | > 25000 | CNC(=O)N1CCn2c(C3CCOCC3)nc(-c3c(F)ccc4cc(-c5cn(C)nc5C)ncc34)c2C1 [Example 73, 1-(3-(1,3-dimethyl-1H-pyrazol-4-yl)-7-fluoroisoquinolin-8-yl)-N-methyl-3-(tetrahydro-2H-pyran-4-yl)-5,6-dihydroimidazo[1,5-a]pyrazine-7(8H)-carboxamide]
313 | > 25000 | CC(=O)N1CCn2c(C3CC3)nc(N3CCCc4cc(-c5cnn(C6CCC6)c5)ccc43)c2C1 [Example 119, 1-(1-(6-(1-cyclobutyl-1H-pyrazol-4-yl)-3,4-dihydroquinolin-1(2H)-yl)-3-cyclopropyl-5,6-dihydroimidazo[1,5-a]pyrazin-7(8H)-yl)ethan-1-one]
63 | > 10000 | CNC(=O)N1CCn2c(C3CN(C(C)=O)C3)nc(-c3ccc4c(c3)c(-c3cnn(C)c3)nn4C)c2C1 [Example 9, 3-(1-Acetylazetidin-3-yl)-N-methyl-1-(1-methyl-3-(1-methyl-1H-pyrazol-4-yl)-1H-indazol-5-yl)-5,6-dihydroimidazo[1,5-a]pyrazine-7(8H)-carboxamide]
185 | 11200 | CC(=O)N1CCn2c(C3CC3)nc(N3CCCc4cc(-c5cnn(C(F)F)c5)ccc43)c2C1 [Example 110, 1-(3-cyclopropyl-1-(6-(1-(difluoromethyl)-1H-pyrazol-4-yl)-3,4-dihydroquinolin-1(2H)-yl)-5,6-dihydroimidazo[1,5-a]pyrazin-7(8H)-yl)ethan-1-one]
15 | 7530 | CNC(=O)N1CCn2c(C3CC3)nc(-c3ccc4c(c3)c(-c3cnn(C)c3)nn4C)c2C1 [Example 105, 3-cyclopropyl-N-methyl-1-(1-methyl-3-(1-methyl-1H-pyrazol-4-yl)-1H-indazol-5-yl)-5,6-dihydroimidazo[1,5-a]pyrazine-7(8H)-carboxamide]
392 | > 25000 | CC(=O)N1CCn2c(N3CCOCC3)nc(-c3ccc4c(c3)c(-c3cnn(C)c3)nn4C)c2C1 [Example 16, 1-(1-(1-Methyl-3-(1-methyl-1H-pyrazol-4-yl)-1H-indazol-5-yl)-3-morpho-lino-5,6-dihydroimidazo[1,5-a]pyrazin-7(8H)-yl)ethanone]
6 | 14800 | CNC(=O)N1CCn2c(C3CC(F)(F)C3)nc(-c3cccc4cc(-c5ccn(C)n5)ncc34)c2C1 [Example 79, 3-(3,3-difluorocyclobutyl)-N-methyl-1-(3-(1-methyl-1H-pyrazol-3-yl)isoquinolin-8-yl)-5,6-dihydroimidazo[1,5-a]pyrazine-7(8H)-carboxamide]
124 | 6290 | CC(=O)N1CCn2c(C3CCOC3)nc(-c3ccc4c(c3)c(-c3cnn(C)c3)nn4C)c2C1 (stereo not drawn) [Example 45, 1-(1-(1-methyl-3-(1-methyl-1H-pyrazol-4-yl)-1H-indazol-5-yl)-3-(tetrahydrofuran-3-yl)-5,6-dihydroimidazo[1,5-a]pyrazin-7(8H)-yl)ethan-1-one]
615 | > 25000 | CC(=O)N1CCn2c(C3CC3)nc(N3CCCc4cc(-c5ccncc5)ccc43)c2C1 [Example 114, 1-(3-cyclopropyl-1-(6-(pyridin-4-yl)-3,4-dihydroquinolin-1(2H)-yl)-5,6-dihydroimidazo[1,5-a]pyrazin-7(8H)-yl)ethan-1-one]
19 | > 25000 | CNC(=O)N1CCn2c(C3CC3)nc(-c3cccc4nc(N5CC6(COC6)C5)c(C#N)cc34)c2C1 [Example 102, 1-(3-cyano-2-(2-oxa-6-azaspiro[3.3]heptan-6-yl)quinolin-5-yl)-3-cyclopropyl-N-methyl-5,6-dihydroimidazo[1,5-a]pyrazine-7(8H)-carboxamide]
2 | 11900 | CNC(=O)N1CCn2c(C3CCC(F)(F)CC3)nc(-c3cccc4cc(-c5ccn(C)n5)ncc34)c2C1 [Example 80, 3-(4,4-difluorocyclohexyl)-N-methyl-1-(3-(1-methyl-1H-pyrazol-3-yl)isoquinolin-8-yl)-5,6-dihydroimidazo[1,5-a]pyrazine-7(8H)-carboxamide]
19 | > 10000 | CNC(=O)N1Cc2c(-c3cccc4cc(-c5cnn(C)c5)ncc34)nc(C3CC3)n2CC1C (stereo not drawn) [Example 125, 3-cyclopropyl-N,6-dimethyl-1-(3-(1-methyl-1H-pyrazol-4-yl)isoquinolin-8-yl)-5,6-dihydroimidazo[1,5-a]pyrazine-7(8H)-carboxamide]
4 | 13700 | CNC(=O)N1CCn2c(C3CCOCC3)nc(-c3cccc4nc(-c5cnn(C)c5)c(C(F)(F)F)cc34)c2C1 [Example 65, N-methyl-1-(2-(1-methyl-1H-pyrazol-4-yl)-3-(trifluoromethyl)quinolin-5-yl)-3-(tetrahydro-2H-pyran-4-yl)-5,6-dihydroimidazo[1,5-a]pyrazine-7(8H)-carboxamide]
